Measurements as given in BindingDB's records for doi:10.1021/jm00017a003 (Sterling Winthrop Pharmaecuticals Research Division, 1995).

Assay: The compound was tested for inhibition of HIV-1 replication in SW480 cells using HIV tat assay

C[C@@]12CCCC[C@]13O[C@@H]3C(=O)C(C#N)C2 (some centres not stated)
IC50: 34 µM

C[C@]12CCCC[C@]1(O)[C@H](Cl)C(=O)C(C(N)=O)C2 (some centres not stated)
IC50: 32.1 µM

C[C@]12CCCC[C@@]13O[C@H]3C(=O)C(C#N)C2 (some centres not stated)
IC50: 278 µM

C[C@@]12CCCC[C@@]1(O)[C@@H](Cl)C(=O)C(C(=O)Nc1ccccc1)C2 (some centres not stated)
IC50: 7 µM

C[C@]12CC[C@H]3[C@@H](CC[C@@]45O[C@@H]4C(=O)C(S(=O)(=O)c4ccccc4)C[C@]35C)[C@@H]1CC[C@@H]2O (some centres not stated)
IC50: 10.3 µM

CC(=O)O[C@H]1CC[C@H]2[C@@H]3CC[C@@]45O[C@@H]4C(=O)C(S(C)(=O)=O)C[C@]5(C)[C@H]3CC[C@]12C (some centres not stated)
IC50: 2.6 µM

CC(=O)O[C@H]1CC[C@H]2[C@@H]3CC[C@@]45O[C@@H]4C(=O)C(C(N)=O)C[C@]5(C)[C@H]3CC[C@]12C (some centres not stated)
IC50: 2.6 µM

C[C@]12CC[C@H]3[C@@H](CC[C@@]45O[C@@H]4C(=O)C(C(N)=O)C[C@]35C)[C@@H]1CC[C@@H]2O (some centres not stated)
IC50: 14.3 µM

COc1ccc(NC(=O)C2C[C@]3(C)CCCC[C@@]3(O)[C@@H](Cl)C2=O)cc1 (some centres not stated)
IC50: 33.5 µM

C[C@@]12CCCC[C@]13O[C@@H]3C(=O)C(C(=O)Nc1ccccc1)C2 (some centres not stated)
IC50: 2.8 µM

CC(=O)O[C@H]1CC[C@H]2[C@@H]3CC[C@@]45O[C@@H]4C(=O)C(C#N)C[C@]5(C)[C@H]3CC[C@]12C (some centres not stated)
IC50: 24.5 µM

CC(=O)O[C@H]1CC[C@H]2[C@@H]3CC[C@@]4(O)[C@@H](Cl)C(=O)C(C(N)=O)C[C@]4(C)[C@H]3CC[C@]12C (some centres not stated)
IC50: 8.4 µM

COc1ccc(NC(=O)C2C[C@]3(C)CCCC[C@]34O[C@@H]4C2=O)cc1 (some centres not stated)
IC50: 25.7 µM

C[C@@]12CCCC[C@@]1(O)[C@@H](Cl)C(=O)C(C(N)=O)C2 (some centres not stated)
IC50: 16.5 µM

C[C@@]12CCCC[C@]13O[C@@H]3C(=O)C(C(N)=O)C2 (some centres not stated)
IC50: 9.9 µM

C[C@]12CCCC[C@@]13O[C@H]3C(=O)C(C(N)=O)C2 (some centres not stated)
IC50: 72 µM

C[C@]12CC[C@H]3[C@@H](CC[C@@]45O[C@@H]4C(=O)CC[C@]35C)[C@@H]1CC[C@@H]2O
IC50: 15.4 µM

COc1ccc(NC(=O)C2CC(C)(C)C3OC3C2=O)cc1 (configuration not stated)
IC50: 21.4 µM

C[C@]12CCC3C(CC[C@@]45O[C@@H]4C(=O)C(S(C)(=O)=O)C[C@]35C)C1CC[C@@H]2O (some centres not stated)
IC50: 8.4 µM

COC(=O)C1C[C@]2(C)[C@H]3CC[C@]4(C)[C@@H](OC(C)=O)CC[C@H]4[C@@H]3CC[C@]23O[C@@H]3C1=O (some centres not stated)
IC50: 2.7 µM

CC1(C)CC(C(=O)Nc2c(Cl)cccc2Cl)C(=O)C2OC21 (configuration not stated)
IC50: 31.7 µM

COC(=O)C1C[C@]2(C)[C@H]3CC[C@]4(C)[C@@H](O)CC[C@H]4[C@@H]3CC[C@]23O[C@@H]3C1=O (some centres not stated)
IC50: 3.6 µM
